Results from patent US20080095737A1, “NON-TOXIC COATING COMPOSITION, METHODS OF USE THEREOF AND ARTICLES PROTECTED FROM ATTACHMENT OF BIOFOULING ORGANISMS” (Symrise GmbH & Co. KG, priority 2000, published 2008).
Converted amounts (≈) assume the structure as drawn. “And” between values parts separate entries of the source, which are not always exact repeats. Equal entries are not always repeated. Where two headings read alike, the source gives them in different places.

Tests used:
[1] = tested on: cyprid larvae of the barnacle, Balanus amphitrite Darwin; experiment: Barnacle settlement inhibition assay; format: in vivo; settings: for EC50: Amphibalanus amphitrite, read-out: EC50 (concentration which inhibited the settlement of 50% of the cyprid stage larvae); for efficacy as antifouling agents: in words
From the text: Mary's College in Tuticorin, India. The barnacles were crushed and the nauplius stage larvae were collected for culture to the cyprid stage following the method of Rittschof et al., J. Exp. Mar. Biol. Ecol., 82:131146 (1984). The cyprid is the stage at which the barnacle larva is competent to attach to surfaces. Upon attachment to a surface, the larva then undergoes metamorphosis into a barnacle. Barnacle settlement assays were undertaken using the method described previously by Rittschof et al., J. Chem. […] Briefly, Falcon 50×9 mm plastic petri dishes were filled with 5 ml of filtered seawater at salinity of 33-35 parts per thousand (ppt) and into which 3-day old cyprid stage larvae were added. The test compounds were introduced at various concentrations into the dishes containing seawater. The test compounds included (-)menthol and (-)[…]-3,8-diol. Controls were represented by those dishes in which no test compound were added. After incubation at 28° C. for 9 hours, the dishes were examined under a dissecting microscope to determine if there was any mortality. […] Settlement data were expressed as the percentage of the larvae attached to the bottom of the dish. The same settlement assay was used to determine the effective concentration of a number of different compounds of formula I, above. The effective concentration (EC50) is that concentration which inhibited the settlement of fifty percent (50%) of the cyprid stage of the barnacle larvae present in a test sample.

[2] = tested on: barnacle, Balanus amphitrite communis; experiment: Painted iron panels submerged in the sea, barnacle attachment; settings: cuprous oxide-containing marine paint on iron panels, submerged 78 weeks; control paint = 100
Protocol: A floating platform was constructed using layers of bamboo and styrofoam floats. The platform was designed with holders to accommodate test panels measuring 4 inches×12 inches×0.25 inches.
A first experimental paint was prepared, containing a biocidally effective amount of cuprous oxide and no other biocide which was used as the control. To this composition was added a combination of 0.5%, by weight of (−)-trans-pmenthan-3,8-diol and 0.50 of (−)-menthol (Composition A). A second paint composition was prepared from the same marine paint vehicle containing cuprous oxide, to which was added 2% by weight of (−)-menthol (Composition B). A third formulation was made from the same cuprous oxide-containing marine paint vehicle, to which was added 2% by weight of (−)-trans-p-menthan-3,8-diol (Composition C).
Solid iron panels having the above-mentioned dimensions were painted with the paint formulations thus prepared, placed in the holders in the floating platform and submerged continuously near the center of Bitac Cove in San Dionisio Bay (Philippines) for a period of 78 weeks. The panels were examined for a few minutes every three months and immediately resubmerged after photography. After 78 weeks, the panels were removed and inspected. The numbers of barnacles attached to the panels were counted. […]

fouling phytoplanktons = experiment: Attachment of fouling phytoplanktons on painted submerged cement structures (seawater raceway); parameters: key: +++++: highest amount of fouling attachments; −: no appreciable fouling attachments; settings: 5% by weight in paint on cement structure, 60 days in seawater raceway
Protocol: A raceway measuring 100 feet long, 15 feet wide and 3 feet deep was constructed near the sea and lined with a plastic liner. Seawater was pumped directly from the sea and the Growth of naturally occurring plankton was induced by fertilization of the seawater. The total volume of the seawater was approximately 150 cubic meters. The water was circulated and aerated using a paddlewheel. Samples of the seawater were analyzed after 30 days and found to contain the following species of diatoms: Grammatophoria ocean ica, Nitzschia sp., A,inphora sp., Amphora bigilba, Thalassiothrix sp., Stauroneis sp., Licniophora sp., and Navicula sp. The seawater also contained the dinoflagellate, Peridhan sp., and the blue Green algae, Ocillatoria sp. and Rivularia sp.
A conventional paint formulation that was free of any tributyl tin compounds was used as a control. Paint formulations embodying the present invention were prepared by incorporating (−)-menthol and (−)-(trans)-p-menthan-3,8-diol at a dose concentration of 5 percent (5%) by weight of each compound into the same paint vehicle used for the control formulation, and these two formulations were painted on separate surfaces of cement structures placed in the raceway. The controls consisted of unpainted cement surface and surface painted with the control formulation. […]

[3] = tested on: other bacterial strains associated with B. amphitrite; experiment: Agar diffusion assay, marine bacteria associated with B. amphitrite; format: cell-based; settings: 0.004 mg/ml loaded on 6.5 mm disks
Vibrio sp. (V, & V,) = experiment: Agar diffusion assay, marine bacteria associated with Perna sp; format: cell-based; settings: procedure as Example 2
Flavobacterium sp. (F) = experiment: Agar diffusion assay, marine bacteria associated with B. amphitrite; format: cell-based; settings: 0.004 mg/ml loaded on 6.5 mm disks
Aeromonas sp. (Ael) = experiment: as above; format: cell-based; settings: 0.004 mg/ml loaded on 6.5 mm disks
Nitzchia sp. = experiment: In vitro cell growth inhibition assay, Nitzchia sp; format: cell-based; settings: 0.00001-1.0 mg/ml, compared to the control
Protocol: The in vitro cell growth inhibition assay used in this test is described in […], et al., J. Chem. Ecol., supra. Dunaliella tertiolecta is a marine micro algae cultured in the laboratory. Each test algae was inoculated from stock culture into flasks containing growth medium. (-)-menthol was added to the flask at various concentrations and the growth was monitored on each flask using a haemocytometer at 24-hour intervals up to the death phase of the culture. The test procedure employed was substantially the same as described in Example 4, except that Nitzchia sp. was substituted for D. tertiolecta.

Dunaliella tertiolecta = experiment: In vitro cell growth inhibition assay, marine unicellular algae; format: cell-based; settings: 0.00001-1.0 mg/ml, cell counts at 24-hour intervals
Protocol: The in vitro cell growth inhibition assay used in this test is described in […], et al., J. Chem. Ecol., supra. Dunaliella tertiolecta is a marine micro algae cultured in the laboratory. Each test algae was inoculated from stock culture into flasks containing growth medium. (-)-menthol was added to the flask at various concentrations and the growth was monitored on each flask using a haemocytometer at 24-hour intervals up to the death phase of the culture.

[4] = tested on: other bacterial strains associated with Perna sp; experiment: Agar diffusion assay, marine bacteria associated with Perna sp; settings: procedure as Example 2
[5] = tested on: nauplii of the barnacle, Balauus annphitrite Darwin; experiment: Mortality of barnacle nauplii at the effective concentrations; settings: prolonged exposure at the compound's EC50 concentration
[6] = tested on: barnacle, Balanus amphitrite Darwin; settings: cited from earlier work
[7] = settlement assay, cyprid larvae

C=C(C)C1CCC(C)CC1O (single isomer, unassigned; (-)) [(−)-isopulegol, 5-methyl-2-(1-methylethenyl)cyclohexanol]
EC50 [1, 7]: 0.088 µg/mL (≈ 0.57 µM) | efficacy as antifouling agents ([1]; settlement assay): superior efficacy

CC1CCC(C(C)C)C(O)C1 (single isomer, unassigned; (-)) [(−)-menthol]
% Settlement [2]: 16.1% | DEGREE OF BIOFOULING (fouling phytoplanktons): − | sensitivity of bacterial strains [3]: moderately sensitive | zone of inhibition, radius (Vibrio sp. (V, & V,)): greater than 8.5 mm | zone of inhibition, radius (Flavobacterium sp. (F)): greater than 10 mm | zone of inhibition, radius (Aeromonas sp. (Ael)): greater than 10 mm | inhibition of growth rate (Nitzchia sp.): effective at all of the concentrations tested in inhibiting the growth rate | EC50 [1]: 4 µg/mL (≈ 25.6 µM) | settlement (percentage of the larvae attached to the bottom of the dish) ([1]; each of five concentrations tested (concentrations not given), in order, last = highest, 9 hours at 28° C., control 59% (diol) / 58% (menthol)): 39% and 34% and 26% and 23% and 21% | inhibition of growth (Dunaliella tertiolecta): effective in inhibiting the growth of this micro algae in a dose dependent manner | sensitivity of bacterial strains [4]: moderately sensitive | mortality of barnacle nauplii [5]: did not show any mortality

CC1CCC(C(C)C)C(=O)C1 (single isomer, unassigned; (-)) [(−)-menthone]
EC50 [1]: 1 µg/mL (≈ 6.48 µM) | mortality of barnacle nauplii [5]: did not show any mortality

CC1CCC(C(C)C)C(Cl)C1 (single isomer, unassigned; (-)) [(−)-menthyl chloride]
EC50 [1]: 0.1 µg/mL | mortality of barnacle nauplii [5]: did not show any mortality

CC1CCC(C(C)(C)O)C(O)C1 (single isomer, unassigned; (-)) [(−)-trans-p-menthan-3,8-diol]
% Settlement [2]: 27.1% | DEGREE OF BIOFOULING (fouling phytoplanktons): − | EC50 [1]: 1 µg/mL (≈ 5.8 µM) | mortality of barnacle nauplii [5]: did not show any mortality

CCC[CH2][Sn]([Cl])([CH2]CCC)[CH2]CCC [TBT chloride]
acute toxicity, estimated dose [6]: ~3.4 μg (microgram) per liter | acute toxicity, estimated dose ([6]; same value restated): ~0.0000034 grams/liter

CC1CCC(C(C)C)C(OCC(O)CO)C1 (centres unmarked) [menthoxypropanediol, 3-[[5-methyl-2-(1-methylethyl)cyclohexyl]oxy]-1,2-propanediol]
EC50 [1, 7]: 0.002 µg/mL (≈ 0.00868 µM) | efficacy as antifouling agents ([1]; settlement assay): superior efficacy
